Data on 31 compounds can be found in US20060247261A1 (priority 2002, published 2006).

Where only a bound is given, the exact number is not on record here.

For this experiment, the target named is T1, human cannabinoid CB2 receptor (Homo sapiens, UniProt P34972).
T1 construct: expressed in transfected cells; host or cells: Saccharomyces cerevisiae strain MMY23 (expresses a chimeric Gpa1/human Galpha-i3 G-protein alpha subunit)
Briefly: Cannabinoid CB2 receptor agonist activity, yeast reporter assay. Particulars: for Emax: read-out: efficacy (Emax) at the cloned human cannabinoid CB2 receptor. It counts as cell-based. The source says:
Yeast (Saccharomyces cerevisiae) cells expressing the human cannabinoid CB2 receptor were generated by integration of an expression cassette into the ura3 chromosomal locus of yeast strain MMY23. This cassette consisted of DNA sequence encoding the human CB2 receptor flanked by the yeast GPD promoter to the 5′ end of CB2 and a yeast transcriptional terminator sequence to the 3′ end of CB2. MMY23 expresses a yeast/mammalian chimeric G-protein alpha subunit in which the C-terminal 5 amino acids of Gpa1 are replaced with the C-terminal 5 amino acids of human Gαi3 (as described in Brown et al. (2000), Yeast 16:11-22).
Agonists were prepared as 10 mM stocks in DMSO. […] Agonist solutions in DMSO (1% final assay volume) were transferred into black, clear bottom, microtitre plates from NUNC (96- or 384-well). […] Fluorescence was plotted against compound concentration and iteratively curve fitted using a four parameter fit to generate a concentration effect value.

T1 sequence (P34972 whole entry): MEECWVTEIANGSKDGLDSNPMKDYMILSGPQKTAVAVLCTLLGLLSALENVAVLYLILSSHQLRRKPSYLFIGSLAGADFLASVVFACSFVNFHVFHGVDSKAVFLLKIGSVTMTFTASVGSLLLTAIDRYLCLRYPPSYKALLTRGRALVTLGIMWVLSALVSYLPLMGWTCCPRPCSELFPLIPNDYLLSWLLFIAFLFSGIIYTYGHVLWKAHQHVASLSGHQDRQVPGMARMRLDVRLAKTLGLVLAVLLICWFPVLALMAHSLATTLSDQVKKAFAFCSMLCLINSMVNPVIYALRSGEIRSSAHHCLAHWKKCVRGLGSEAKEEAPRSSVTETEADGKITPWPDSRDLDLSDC

Regarding `O=C(NCc1ccccc1Br)c1cnc(Nc2cccc(Cl)c2)nc1C(F)(F)F` [2-(3-Chloro-phenylamino)-4-trifluoromethyl-pyrimidine-5-carboxylic acid 2-bromo-benzylamide], the “activity in the CB2 assay (in words)” value (CB2 assay described herein) was “inactive”.

On to `CN(Cc1ccccc1)C(=O)c1cnc(Nc2cccc(Br)c2)nc1C(F)(F)F` [Example 14, 2-(3-Bromophenylamino)-4-trifluoromethylpyrimidine-5-carboxylic acid N-benzyl-N-methylamide], for which the EC50 (commonly the concentration that produces a half-maximal response) lay in the range of 20 to 1000 nM and the Emax (in general, the greatest response seen or fitted, relative to the assay's reference) is > 50%.

`O=C(NCc1ccncc1)c1cnc(Nc2cc(Cl)ccc2Cl)nc1C(F)(F)F` [Example 19, 2-(2,5-Dichlorophenylamino)trifluoromethylpyrimidine-5-carboxylic acid (pyridin-4-ylmethyl)amide]: the EC50 lay in the range of 20 to 1000 nM and the Emax is > 50%.

Take `O=C(NCc1ccncc1)c1cnc(Nc2cccc(Cl)c2)nc1C(F)(F)F` [Example 2, 2-(3-Chlorophenylamino)-4-trifluoromethylpyrimidine-5-carboxylic acid (pyrdin-4-ylmethyl)amide]: the EC50 was in the range of 20 to 1000 nM and the Emax was > 50%.

In the case of `O=C(NCc1ccc(F)cc1)c1cnc(Nc2cc(Cl)ccc2Cl)nc1C(F)(F)F` [Example 101, 2-(2,5-Dichloro-phenylamino)-4-trifluoromethyl-pyrimidine-5-carboxylic acid 4-fluoro-benzylamide], the EC50 was 20 to 1000 nM and the Emax is > 50%.

Take `O=C(NCc1ccncc1)c1cnc(Nc2cc(Cl)cc(Cl)c2)nc1C(F)(F)F` [Example 22, 2-(3,5-Dichlorophenylamino)-4-trifluoromethylpyrimidine-5-carboxylic acid (pyridin-4-ylmethyl)amide]: the EC50 fell in the range of 20 to 1000 nM and the Emax is > 50%.

As to `O=C(NCc1ccc(F)cc1)c1cnc(Nc2ccc(Cl)cc2Cl)nc1C(F)(F)F` [Example 100, 2-(2,4-Dichloro-phenylamino)-4-trifluoromethyl-pyrimidine-5-carboxylic acid 4-fluoro-benzylamide], the EC50 lay within 20 to 1000 nM and the maximal effect (Emax) was > 50%.

As to `O=C(NCc1ccc(F)c(Cl)c1)c1cnc(Nc2cccc(Cl)c2)nc1C(F)(F)F` [Example 109, 2-(3-Chloro-phenylamino)-4-trifluoromethyl-pyrimidine-5-carboxylic acid 3-chloro,4-fluoro-benzylamide], the EC50 was > 1000 nM and the Emax is < 50%.

In the case of `N#Cc1ccc(CNC(=O)c2cnc(Nc3cccc(Cl)c3)nc2C(F)(F)F)cc1` [Example 6, 2-(3-Chlorophenylamino)-4-trifluoromethylpyrimidine-5-carboxylic acid 4 cyanobenzyl-amide], the EC50 lay in the range of 20 to 1000 nM and the Emax was > 50%.

As to `N#Cc1ccc(CNC(=O)c2cnc(Nc3cc(Cl)ccc3Cl)nc2C(F)(F)F)cc1` [Example 67, 2-(2,5-Dichloro-phenylamino)-4-trifluoromethyl-pyrimidine-5-carboxylic acid N-(4-cyano-benzyl)amide], the EC50 was > 1000 nM and the Emax was < 50%.

As for `CN(Cc1ccccc1)C(=O)c1cnc(Nc2cc(Cl)ccc2Cl)nc1C(F)(F)F` [Example 58, 2-(2,5-Dichloro-phenylamino)-4-trifluoromethyl-pyrimidine-5-carboxylic acid N-benzyl-N-methyl-amide], the EC50 is > 1000 nM and the Emax was < 50%.

On to `COc1ccccc1Nc1ncc(C(=O)NCc2ccccc2)c(C(F)(F)F)n1` [Example 15, 2-(2-Methoxyphenylamino)-4-trifluoromethylpyrimidine-5-carboxylic acid benzyl-amide], for which the EC50 fell in the range of 20 to 1000 nM and the Emax was > 50%.

In the case of `O=C(NCc1cccc(Cl)c1)c1cnc(Nc2cccc(Cl)c2)nc1C(F)(F)F` [Example 52, 2-(3-Chloro-phenylamino)-4-trifluoromethyl-pyrimidine-5-carboxylic acid N-(3-chlorobenzyl)amide], the EC50 is > 1000 nM and the Emax was < 50%.

Turning to `CN(Cc1ccc(F)cc1)C(=O)c1cnc(Nc2cccc(Cl)c2)nc1C(F)(F)F` [Example 110, 2-(3-Chloro-phenylamino)-4-trifluoromethyl-pyrimidine-5-carboxylic acid (4-fluoro-benzyl)-methyl-amide], the EC50 was > 1000 nM and the Emax is < 50%.

With `O=C(NCc1ccccc1)c1cnc(Nc2c(Cl)cccc2Cl)nc1C(F)(F)F` [Example 98, 2-(2,6-Dichloro-phenylamino)-4-trifluoromethyl-pyrimidine-5-carboxylic acid benzylamide], the EC50 lay in the range of 20 to 1000 nM and the maximum response (Emax) is > 50%.

For `COc1cccc(Nc2ncc(C(=O)NCc3ccncc3)c(C(F)(F)F)n2)c1` [Example 87], the EC50 lay in the range of 20 to 1000 nM and the Emax is > 50%.

For the compound `Cc1ccc(CNC(=O)c2cnc(Nc3cccc(Cl)c3)nc2C(F)(F)F)cc1` [Example 78, 2-(3-Chloro-phenylamino)-4-trifluoromethyl-pyrimidine-5-carboxylic acid N-(4-methyl-benzyl)amide], the EC50 was > 1000 nM and the maximal effect (Emax) is < 50%.

Take `O=C(NCc1ccccc1)c1cnc(Nc2ccc(Cl)c(Cl)c2)nc1C(F)(F)F` [Example 9, 2-(3,4-Dichlorophenylamino)-4-trifluoromethylpyrimidine-5-carboxylic acid benzyl-amide]: the EC50 lay within 20 to 1000 nM and the Emax was > 50%.

As to `CN(Cc1ccccc1)C(=O)c1cnc(Nc2c(Cl)cccc2Cl)nc1C(F)(F)F` [Example 10, 2-(2,6-Dichlorophenylamino)-4-trifluoromethylpyrimidine-5-carboxylic acid N-benzyl-N-methylamide], the EC50 was in the range of 20 to 1000 nM and the Emax is > 50%.

Regarding `O=C(NCc1ccc(F)cc1)c1cnc(Nc2cc(Cl)ccc2F)nc1C(F)(F)F` [Example 84, 2-(5-Chloro-2-fluoro-phenylamino)-4-trifluoromethyl-pyrimidine-5-carboxylic acid 4-fluoro-benzylamide], the EC50 lay in the range of 20 to 1000 nM and the Emax was > 50%.

In the case of `O=C(NCc1ccncc1)c1cnc(Nc2ccc(Cl)c(Cl)c2)nc1C(F)(F)F` [Example 18], the EC50 lay in the range of 20 to 1000 nM and the Emax was > 50%.

Consider `NC(=O)c1ccc(CNC(=O)c2cnc(Nc3cccc(Cl)c3)nc2C(F)(F)F)cc1` [Example 105, 2-(3-Chloro-phenylamino)-4-trifluoromethyl-pyrimidine-5-carboxylic acid 4-carbarnoyl-benzylamide], for which the concentration giving a half-maximal response (EC50) was > 1000 nM and the Emax is < 50%.

`O=C(NCc1ccncc1)c1cnc(Nc2cccc(Cl)c2Cl)nc1C(F)(F)F` [Example 16]: the EC50 was 20 to 1000 nM and the Emax is > 50%.

On to `O=C(NCc1ccccc1)c1cnc(Nc2ccccc2Cl)nc1C(F)(F)F` [Example 43, 2-(2-Chloro-phenylamino)-4-trifluoromethyl-pyrimidine-5-carboxylic acid N-benzylamide], for which the EC50 is > 1000 nM and the Emax was < 50%.

For the compound `O=C(NCc1cc(F)cc(F)c1)c1cnc(Nc2cccc(Cl)c2)nc1C(F)(F)F` [Example 61, 2-(3-Chloro-phenylamino)-4-trifluoromethyl-pyrimidine-5-carboxylic acid N-(3,5-difluoro-benzyl)amide], the EC50 was > 1000 nM and the Emax was < 50%.

Consider `CN(Cc1ccccc1)C(=O)c1cnc(Nc2cc(Cl)cc(Cl)c2)nc1C(F)(F)F` [Example 57, 2-(3,5-Dichloro-phenylamino)-4-trifluoromethyl-pyrimidine-5-carboxylic acid N-benzyl-N-methyl-amide], for which the EC50 is > 1000 nM and the Emax is < 50%.

`O=C(NCc1ccncc1)c1cnc(Nc2cccc(Br)c2)nc1C(F)(F)F` [Example 21, 2-(3-Bromophenylamino)-4-trifluoromethylpyrimidine-5-carboxylic acid (pyridin-4-ylmethyl)amide]: the EC50 was in the range of 20 to 1000 nM and the Emax was > 50%.

With `O=C(NCc1ccncc1)c1cnc(Nc2ccc(Cl)cc2Cl)nc1C(F)(F)F` [Example 17, 2-(2,4-Dichlorophenylamino)-4-trifluoromethylpyrimidine-5-carboxylic acid (pyridin-4-ylmethyl)amide], the EC50 fell in the range of 20 to 1000 nM and the Emax was > 50%.

As to `O=C(O)Cc1cccc(Nc2ncc(C(=O)NCc3ccc(F)cc3)c(C(F)(F)F)n2)c1` [Example 112, {3-[(4-Fluoro-benzylcarbamoyl)-trifluoromethyl-pyrimidin-2-ylamino]-phenyl}-acetic acid], the concentration giving a half-maximal response (EC50) is > 1000 nM and the maximum response (Emax) is < 50%.

In the case of `O=C(NCc1ccc(F)c(F)c1)c1cnc(Nc2cccc(Cl)c2)nc1C(F)(F)F` [Example 81, 2-(3-Chloro-phenylamino)-4-trifluoromethyl-pyrimidine-5-carboxylic acid 3,4-difluoro-benzylamide], the concentration giving a half-maximal response (EC50) lay within 20 to 1000 nM and the Emax was > 50%.

Consider `O=C(NCc1ccccc1)c1cnc(Nc2cccc(F)c2)nc1C(F)(F)F` [Example 12, 2-(3-Fluorophenylamino)-4-trifluoromethylpyrimidine-5-carboxylic acid benzyl-amide], for which the EC50 was 20 to 1000 nM and the Emax was > 50%.
